Data published in patent US7741281B2, “Hepatitis C virus inhibitors” (Bristol-Myers Squibb Company, priority 2005, dated 2010).

Experiments:
[1] = molecular target: T1, HCV NS3/4A protease complex, BMS strain (UniProt P27958, species not given/STRAIN_BMS); assay: FRET peptide assay to monitor HCV NS3/4A proteolytic activity (BMS strain); type: biochemical, HCV genotype 1a; details: NS3/4A BMS strain; read-out: IC50 Activity Range
T1 construct: for H77 and J4L6S; fused on or other part: Three-lysine solubilizing tail at the end of NS4A, for the H77 and J4L6S constructs; Purification on Ni-NTA and the pET21b vector imply a His tag
Excerpt: HCV NS3 protease complexes, derived from the BMS strain, H77 strain or J4L6S strain, were generated, as described below. These purified recombinant proteins were generated for use in a homogeneous assay (see below) to provide an indication of how effective compounds of the present disclosure would be in inhibiting HCV NS3 proteolytic activity.
Serum from an HCV-infected patient was obtained from Dr. T. Wright, San Francisco Hospital. An engineered full-length cDNA (compliment deoxyribonucleic acid) template of the HCV genome (BMS strain) was constructed from DNA fragments obtained by reverse transcription-PCR (RT-PCR) of serum RNA (ribonucleic acid) and using primers selected on the basis of homology between other genotype 1a strains. From the determination of the entire genome sequence, a genotype 1a was assigned to the HCV isolate according to the classification of Simmonds et al. (See P Simmonds, K A Rose, S Graham, S W Chan, F McOmish, B C Dow, E A Follett, P L Yap and H Marsden, J. Clin. Microbiol., 31(6), 1493-1503 (1993)). […] The infectious clones, H77 (1a genotype) and J4L6S (1b genotype) were obtained from R. Purcell (NIH) and the sequences are published in Genbank (AAB67036, see Yanagi, M., Purcell, R. H., Emerson, S. U. and Bukh, J. Proc. Natl. Acad. Sci. U.S.A. 94(16), 8738-8743 (1997); AF054247, see Yanagi, M., St Claire, M., Shapiro, M., Emerson, S. U., Purcell, R. H. and Bukh, J, Virology 244 (1), 161-172. (1998)).
The H77 and J4L6S strains were used for production of recombinant NS3/4A protease complexes. DNA encoding the recombinant HCV NS3/4A protease complex (amino acids 1027 to 1711) for these strains were manipulated as described by P. Gallinari et al. (see Gallinari P, Paolini C, Brennan D, Nardi C, Steinkuhler C, De Francesco R. Biochemistry. 38(17):5620-32, (1999)). Briefly, a three-lysine solubilizing tail was added at the 3′-end of the NS4A coding region. The cysteine in the P1 position of the NS4A-NS4B cleavage site (amino acid 1711) was changed to a glycine to avoid the proteolytic cleavage of the lysine tag. Furthermore, a cysteine to serine mutation was introduced by PCR at amino acid position 1454 to prevent the autolytic cleavage in the NS3 helicase domain. The variant DNA fragment was cloned in the pET21b bacterial expression vector (Novagen) and the NS3/4A complex was expressed in Escherichia. coli strain BL21 (DE3) (Invitrogen) following the protocol described by P. Gallinari et al. (see Gallinari P, Brennan D, Nardi C, Brunetti M, Tomei L, Steinkuhler C, De Francesco R., J Virol. 72(8):6758-69 (1998)) with modifications. Briefly, the NS3/4A protease complex expression was induced with 0.5 millimolar (mM) Isopropyl β-D-1-thiogalactopyranoside (IPTG) for 22 hours (h) at 20° C. A typical fermentation (1 Liter (L)) yielded approximately 10 grams (g) of wet cell paste. The cells were resuspended in lysis buffer (10 mL/g) consisting of 25 mM N-(2-Hydroxyethyl)Piperazine-N′-(2-Ethane Sulfonic acid) (HEPES), pH 7.5, 20% glycerol, 500 mM Sodium Chloride (NaCl), 0.5% Triton X-100, 1 microgram/milliliter (“μg/mL”) lysozyme, 5 mM Magnesium Chloride (MgCl2), 1 μg/ml DnaseI, 5 mM β-Mercaptoethanol (βME), Protease inhibitor-Ethylenediamine Tetraacetic acid (EDTA) free (Roche), homogenized and incubated for 20 minutes (min) at 4° C. The homogenate was sonicated and clarified by ultra-centrifugation at 235000 g for 1 h at 4° C. Imidazole was added to the supernatant to a final concentration of 15 mM and the pH adjusted to 8.0. The crude protein extract was loaded on a Nickel-Nitrilotriacetic acid (Ni-NTA) column pre-equilibrated with buffer B (25 mM HEPES, pH 8.0, 20% glycerol, 500 mM NaCl, 0.5% Triton X-100, 15 mM imidazole, 5 mM βME). The sample was loaded at a flow rate of 1 mL/min. The column was washed with 15 column volumes of buffer C (same as buffer B except with 0.2% Triton X-100). The protein was eluted with 5 column volumes of buffer D (same as buffer C except with 200 mM Imidazole). […]

[2] = tested on: HCV replicon in HUH-7 cells; assay: HCV replicon FRET assay; type: cell-based, HCV strain 1b; details: Hepatitis C virus, Huh-7; HCV replicon; read-out: EC50 Activity Range
Excerpt: An HCV replicon whole cell system was established as described by Lohmann V, Korner F, Koch J, Herian U, Theilmann L, Bartenschlager R., Science 285(5424):110-3 (1999). This system enabled us to evaluate the effects of our HCV Protease compounds on HCV RNA replication. Briefly, using the HCV strain 1b sequence described in the Lohmann paper (Assession number: AJ238799), an HCV cDNA was synthesized by Operon Technologies, Inc. (Alameda, Calif.), and the full-length replicon was then assembled in plasmid pGem9zf(+) (Promega, Madison, Wis.) using standard molecular biology techniques. The replicon consists of (i) the HCV 5′ UTR fused to the first 12 amino acids of the capsid protein, (ii) the neomycin phosphotransferase gene (neo), (iii) the IRES from encephalomyocarditis virus (EMCV), and (iv) HCV NS3 to NS5B genes and the HCV 3′ UTR. Plasmid DNAs were linearized with ScaI and RNA transcripts were synthesized in vitro using the T7 MegaScript transcription kit (Ambion, Austin, Tex.) according to manufacturer's directions. In vitro transcripts of the cDNA were transfected into the human hepatoma cell line, HUH-7. […] Resulting cell lines were characterized for positive and negative strand RNA production and protein production over time.
The HCV replicon FRET assay was developed to monitor the inhibitory effects of compounds described in the disclosure on HCV viral replication. HUH-7 cells, constitutively expressing the HCV replicon, were grown in Dulbecco's Modified Eagle Media (DMEM) (Gibco-BRL) containing 10% Fetal calf serum (FCS) (Sigma) and 1 mg/ml G418 (Gibco-BRL). Cells were seeded the night before (1.5×10^4 cells/well) in 96-well tissue-culture sterile plates. Compound and no compound controls were prepared in DMEM containing 4% FCS, 1:100 Penicillin/Streptomysin (Gibco-BRL), 1:100 L-glutamine and 5% DMSO in the dilution plate (0.5% DMSO final concentration in the assay). Compound/DMSO mixes were added to the cells and incubated for 4 days at 37° C. After 4 days, cells were first assessed for cytotoxicity using alamar Blue (Trek Diagnotstic Systems) for a CC50 reading. The toxicity of compound (CC50) was determined by adding 1/10th volume of alamar Blue to the media incubating the cells. After 4 hours, the fluorescence signal from each well was read, with an excitation wavelength at 530 nm and an emission wavelength of 580 nm, using the Cytofluor Series 4000 (Perspective Biosystems). Plates were then rinsed thoroughly with Phosphate-Buffered Saline (PBS) (3 times 150 μl). The cells were lysed with 25 μl of a lysis assay reagent containing an HCV protease substrate (5× cell Luciferase cell culture lysis reagent (Promega #El 53A) diluted to 1× with distilled water, NaCl added to 150 mM final, the FRET peptide substrate (as described for the enzyme assay above) diluted to 10 μM final from a 2 mM stock in 100% DMSO. […]. The plate was then placed into the Cytofluor 4000 instrument which had been set to 340 nm excitation/490 nm emission, automatic mode for 21 cycles and the plate read in a kinetic mode. EC50 determinations were carried out as described for the IC50 determinations.

T1 sequence (P27958 1027-1657, change not shown, one chain of several): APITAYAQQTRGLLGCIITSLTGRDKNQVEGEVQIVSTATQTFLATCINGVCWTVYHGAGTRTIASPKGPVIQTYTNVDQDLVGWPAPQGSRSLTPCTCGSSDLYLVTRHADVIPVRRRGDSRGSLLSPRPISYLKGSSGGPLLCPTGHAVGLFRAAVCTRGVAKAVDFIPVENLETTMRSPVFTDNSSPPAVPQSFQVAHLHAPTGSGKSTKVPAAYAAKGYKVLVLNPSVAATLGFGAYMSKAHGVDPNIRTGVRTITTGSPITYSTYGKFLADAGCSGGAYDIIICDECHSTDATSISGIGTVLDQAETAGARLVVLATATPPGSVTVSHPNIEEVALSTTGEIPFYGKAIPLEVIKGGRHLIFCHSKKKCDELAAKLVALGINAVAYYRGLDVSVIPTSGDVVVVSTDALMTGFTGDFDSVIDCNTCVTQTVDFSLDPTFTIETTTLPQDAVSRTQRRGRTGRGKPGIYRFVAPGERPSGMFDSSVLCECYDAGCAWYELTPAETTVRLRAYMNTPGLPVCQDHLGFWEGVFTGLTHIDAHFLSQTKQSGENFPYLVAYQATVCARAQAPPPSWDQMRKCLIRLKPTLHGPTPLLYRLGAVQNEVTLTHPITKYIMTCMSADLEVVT

Structure (SMILES)	IC50 [1] [nM]	EC50 [2] [nM]	melting point [°C]
CC(C)(C)OC(=O)N[C@H]1CCCOC/C=C\[C@@H]2C[C@@]2(C(=O)NS(=O)(=O)C2CC2)NC(=O)[C@@H]2C[C@@H](OC(C)(C)C)CN2C1=O [Compound 6, (1S,4R,6S,14S,18R,7-cis)-18-tert-butoxy-14-tert-butoxycarbonylamino-4-cyclopropanesulfonylaminocarbonyl-2,15-dioxo-3,16-diaza-10-oxatricyclo[14.3.0.0^4,6]nonadec-7-ene]	100 to 1000	> 1000	
CC(C)(C)OC(=O)N[C@H]1CCCCC/C=C\[C@@H]2C[C@@]2(C(=O)NS(=O)(=O)C2CC2)NC(=O)[C@@H]2C[C@@H](Oc3ccccn3)CN2C1=O [Compound 1]	< 100	100 to 1000	
CC(C)(C)OC(=O)N[C@H]1CCCCC/C=C\[C@@H]2C[C@@]2(C(=O)NS(=O)(=O)C2CC2)NC(=O)[C@@H]2C[C@@H](Oc3ccc([N+](=O)[O-])cc3)CN2C1=O [Compound 2]	< 100	> 1000	
CC(C)(C)OC(=O)N[C@H]1CCCOC/C=C\[C@@H]2C[C@@]2(C(=O)NS(=O)(=O)C2CC2)NC(=O)[C@@H]2C[C@@H](OCc3ccccc3)CN2C1=O [Compound 5, (1S,4R,6S,14S,18R,7-cis)-18-benzyloxy-14-tert-butoxycarbonylamino-4-cyclopropanesulfonylaminocarbonyl-2,15-dioxo-3,16-diaza-10-oxatricyclo[14.3.0.0^4,6]nonadec-7-ene]	< 100	> 1000	147 to 149
